Patent publication US11839593B2, “Penetrating topical pain relief compositions and methods of use” (Tech Swerve LLC, priority 2019, dated 2023)

Assay: Solubility in DMSO or in DMSO and water
Conditions: isolates

CCCCCc1cc(O)c2c(c1)OC(C)(C)[C@@H]1CCC(C)=C[C@@H]21 [THC, tetrahydrocannabinol]
solubility in DMSO: soluble in DMSO
